Data taken from patent publication US9895344B2, “Treating various disorders with 7,8-dihydroxyflavone and derivatives thereof” (EMORY UNIVERSITY, priority 2008, dated 2018).

Experiments:
TrkB F616A = target: T1, TrkB F616A (Mus musculus, UniProt P15209, F616A); assay: TrkB phosphorylation in cortical neurons from TrkB F616A knockin mice; assay type: cell-based; conditions: inhibitor 100 nM, pretreated 30 minutes
T1 construct: endogenous in cells; host or cells: cortical neurons of TrkB F616A knock-in mice
T1 sequence (P15209 32-821 F616A): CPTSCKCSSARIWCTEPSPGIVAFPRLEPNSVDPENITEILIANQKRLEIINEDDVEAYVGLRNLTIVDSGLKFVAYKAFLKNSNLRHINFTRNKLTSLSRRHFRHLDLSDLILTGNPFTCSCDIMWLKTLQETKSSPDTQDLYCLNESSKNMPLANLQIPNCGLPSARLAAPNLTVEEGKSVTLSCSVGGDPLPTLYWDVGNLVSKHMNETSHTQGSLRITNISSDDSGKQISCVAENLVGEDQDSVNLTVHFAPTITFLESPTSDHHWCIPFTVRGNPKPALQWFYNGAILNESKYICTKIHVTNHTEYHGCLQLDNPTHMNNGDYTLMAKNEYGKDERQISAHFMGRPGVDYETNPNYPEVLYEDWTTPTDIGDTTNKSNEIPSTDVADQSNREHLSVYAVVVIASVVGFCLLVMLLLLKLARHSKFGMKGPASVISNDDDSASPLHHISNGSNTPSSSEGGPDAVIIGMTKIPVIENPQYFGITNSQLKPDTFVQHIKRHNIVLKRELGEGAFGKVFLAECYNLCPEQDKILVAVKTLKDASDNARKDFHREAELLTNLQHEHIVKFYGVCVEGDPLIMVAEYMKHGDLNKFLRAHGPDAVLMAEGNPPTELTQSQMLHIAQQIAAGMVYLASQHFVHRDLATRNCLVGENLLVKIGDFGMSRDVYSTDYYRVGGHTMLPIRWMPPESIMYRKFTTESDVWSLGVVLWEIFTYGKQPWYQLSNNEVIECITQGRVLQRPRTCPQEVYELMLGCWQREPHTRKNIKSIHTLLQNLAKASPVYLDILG
Method: (§1) To explore whether the neuroprotective action of 7,8-dihydroxyflavone is dependent on TrkB activation in vivo, TrkB F616A knockin mice were used. […] To further assess whether 7,8-dihydroxyflavone can mimic BDNF, cortical neurons were prepared from TrkB F616A knockin mice. The cortical neurons were pretreated for 30 minutes with either K252a Trk tyrosine kinase inhibitor (100 nM) or 1NMPP1 inhibitor (100 nM) followed by 0.5 μM 7,8-dihydroxyflavone for 30 minutes.

Akt and Erk1/2 = Akt and Erk1/2 activation in cortical neurons from TrkB F616A knockin mice; assay type: cell-based; conditions: inhibitor 100 nM
Method: as §1

KA-provoked apoptosis = assay: KA-provoked neuronal cell death in TrkB F616A knockin mice, intraperitoneal (caspase-3 immunoblot); assay type: in vivo
Method: To determine if 1NMPP1 would make neurons treated with 7,8-dihydroxyflavone vulnerable to KA-provoked neuronal cell death, TrkF616A knockin mice were fed with 1NMPP1 (25 mM) in drinking water one day prior to pharmacological reagent treatment. The next day, the mice were intraperitoneally injected with KA (25 mg/kg), or 7,8-dihydroxyflavone (5 mg/kg) 4 hours prior to KA injection. The control mice were injected with either KA or 7,8-dihydroxyflavone alone, or the mice were administered 7,8-dihydroxyflavone 4 hours before KA. In 4 days, the mice were sacrificed and the brains were homogenated and ultracentrifuged. The supernatant was employed for SDS-PAGE and immunoblotting analysis.

immobility time = assay: Forced swim test in TrkB F616A knockin mice with saline or 1NMPP1 pretreatment; assay type: in vivo; conditions: 1NMPP1 25 μM in drinking water
Method: To assess whether the behavior responses by 7,8-DHF and its derivative are mediated by TrkB receptor, TrkB F616A knockin mice were utilized. The transgenic mice were subjected to saline or 1NMPP1 pretreatment (25 μM), respectively (drinking water provided one day prior to drug injection and maintained throughout whole experiment). The control and/or drugs were provided for five days. […] (Data presented in FIGS. 34, 35, and 36 as mean±SEM; *p<0.05 against vehicle, #P<0.01 against vehicle and ***P<0.0001 against vehicle, student t-test.)

TrkB [1] = target: T2, TrkB (Rattus norvegicus, UniProt Q63604); assay: TrkB activation in primary cortical neurons (p-TrkB Y817 immunoblotting); assay type: cell-based; set-up: endogenous in cells; host or cells: primary cortical neurons; conditions: 500 nM, 30 min, FIG. 27 left
Method: Primary cultured rat cortical neurons were prepared as follows. E17 rat pups were decapitated and cortex was extirpated, cross chopped, and suspended by pipetting for separation in 5% fetal calf serum (FCS), 5% horse serum (HS) DMEM. The cell suspension was then centrifuged at 250×g for 5 minutes. This operation was repeated again. Cells were seeded into polyethyleneimine-coated 10 cm^2 dishes and 12-well plates including coated-coverslips and incubated at 37° C. in 5% CO2/95% air. After 3 hours, the culture medium was changed to Neurobasal containing B-27 supplement (Invitrogen; Carlsbad, Calif.) and incubated for 4 days. For maintenance, half of the culture medium was changed to fresh Neurobasal/B27 every 4 days. After 1 week, the dished cultured neurons were ready for use.
To compare the TrkB activation by the synthetic compounds of Examples 9 and 10 (see FIG. 26), primary cortical cultures were prepared. The cortical neurons were treated with 500 nM of various compounds for 30 min and collected the cell lysates. […] Replacing the H-bond acceptor O atom with hydrogen bond donor NH reduced its stimulatory effect. […] In comparison, 7,8-DHF provoked TrkB activation with the minimal concentration of 100 nM (FIG. 27, right panels).
Target sequence in this assay (Q63604 32-821): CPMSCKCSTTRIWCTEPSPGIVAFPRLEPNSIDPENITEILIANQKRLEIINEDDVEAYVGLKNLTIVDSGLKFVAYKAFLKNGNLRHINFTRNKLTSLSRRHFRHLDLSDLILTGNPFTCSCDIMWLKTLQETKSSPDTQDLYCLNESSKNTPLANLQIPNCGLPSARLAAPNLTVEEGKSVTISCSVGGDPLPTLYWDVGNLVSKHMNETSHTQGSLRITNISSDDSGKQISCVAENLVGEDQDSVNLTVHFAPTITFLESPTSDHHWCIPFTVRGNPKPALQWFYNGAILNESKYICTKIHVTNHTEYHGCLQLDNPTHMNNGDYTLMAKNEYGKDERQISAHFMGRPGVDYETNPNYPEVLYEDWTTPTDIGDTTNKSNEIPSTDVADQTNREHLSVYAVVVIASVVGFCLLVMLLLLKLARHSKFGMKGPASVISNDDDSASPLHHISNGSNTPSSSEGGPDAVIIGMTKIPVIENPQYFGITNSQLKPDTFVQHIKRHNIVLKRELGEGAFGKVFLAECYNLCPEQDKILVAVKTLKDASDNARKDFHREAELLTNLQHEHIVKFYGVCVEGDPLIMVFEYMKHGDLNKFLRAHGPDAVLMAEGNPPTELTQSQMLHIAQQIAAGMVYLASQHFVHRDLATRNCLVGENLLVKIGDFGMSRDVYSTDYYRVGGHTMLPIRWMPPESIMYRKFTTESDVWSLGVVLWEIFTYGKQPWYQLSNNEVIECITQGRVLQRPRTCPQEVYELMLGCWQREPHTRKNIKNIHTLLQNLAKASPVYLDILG

T48 cells = assay: Fluorescent apoptotic assay (Staurosporine, MR(DEVD)2) in TrkB stably transfected T48 cells; assay type: cell-based, murine; conditions: for EC50: Mus musculus, T48 cells, FIG. 5, read-out: effective concentration at which 50% (EC50) of the cells are protected from apoptosis; for suppression of apoptosis in T48 cell line: Staurosporine-induced apoptosis, FIG. 1B and FIG. 4
Source text: Create and test reporter cell lines. In order to identify small molecules that mimic BDNF and activate TrkB, TrkB stably transfected murine cell lines were created. The T48 and T62 cell lines were created by transfecting basal forebrain SN56 cells, which express negligible TrkB, with a TrkB expression construct. […] To test resistance to apoptosis, SN56 cells and the T48 cell line were either untreated or treated with BDNF, and then subjected to an apoptotic assay. Briefly, the cells were treated with 0.75 μM Staurosporine for 9 hours, and 1 hour before the termination of the experiment, the cells were treated with 10 μM MR (DEVD)2. The cells were then fixed with 4% paraformaldehyde for 15 minutes, washed with phosphate buffered saline (PBS), and incubated with Hoechst 33342 for 10 minutes. Cover slides were washed with PBS, mounted, and the cells were examined using a fluorescent microscope to see which cells turned red upon caspase cleavage.
Cell-based screen. To screen a large number of chemicals, a cell-based apoptic assay was developed using a cell permeable fluorescent dye, MR (DEVD)2, which turns red upon caspase cleavage in apoptotic cells. SN56 and T48 cells were plated at 10,000 cells per well in multiple 96-well plates and exposed to 2000 biologically active compounds from the Spectrum Collection Library for 30 minutes at a concentration of 10 μM in DMSO. Following exposure to the compounds, the cells were subjected to the developed fluorescent apoptotic assay described above (method schematically shown in FIG. 2).
In the initial screen, 5 of the 66 positive compounds were flavone derivatives or similar compounds. […] To compare the apoptosis inhibitory activity, the flavone derivatives were preincubated with SN56 and T48 cells, and subsequently were subjected to the fluorescent apoptotic assay as described above. […] Additionally, the effective concentration at which 50% (EC50) of the cells are protected from apoptosis was determined for 7,8-dihydroxyflavone, Cianidanol, Pinocembrin and Diosmetin.

hippocampal neurons = assay: Glutamate-triggered apoptosis in hippocampal neurons; assay type: cell-based; conditions: pretreated 30 minutes, 50 μM glutamate for 16 hours, compared with BDNF, FIG. 6
Method: To examine whether these compounds could promote neuronal survival, hippocampal neurons were prepared and the cultures were pretreated with various flavone derivatives for 30 minutes, followed by treatment with 50 μM glutamate for 16 hours.

Erk = assay: Western analysis of Erk phosphorylation in hippocampal neurons; assay type: cell-based; conditions: FIG. 9
Method: (§2) To further examine whether 7,8-dihydroxyflavone can stimulate TrkB-mediated downstream signaling cascades, Western analysis was performed.
(§3) To probe the time course of 7,8-dihydroxyflavone triggered TrkB activation, hippocampal neurons were treated with 7,8-dihydroxyflavone at 500 nM and phosphorylation of Erk and Akt was determined over time by Western analysis. […] Stimulation of Erk and Akt by 7,8-dihydroxyflavone also occurred in a dose dependent manner.

Akt = assay: Western analysis of Akt phosphorylation in hippocampal neurons; assay type: cell-based; conditions: FIG. 9
Method: as §2, §3

Caspase-3 activation = assay: Glutamate-provoked Caspase-3 activation in wild-type and TrkB-/- cortical neurons; assay type: cell-based, mice; conditions: control compounds, FIG. 21
Method: To determine whether 7,8-dihydroxyflavone can selectively activate TrkB receptor and prevent neuronal cell death, cortical neurons were prepared from homozygous pups of TrkB+/−mice, which were mated to the same genotype. […] Glutamate nonselectively elicited weak TrkA phosphorylation in both wild-type and TrkB-null neurons (FIG. 21, row 3).

TrkB [2] = target: T2, TrkB; assay: TrkB receptor dimerization in cotransfected HEK293 cells (GST pull-down); assay type: cell-based; set-up: expressed in transfected cells; host or cells: HEK293
Method: BDNF is known to bind the TrkB receptor and provoke its dimerization (Barbacid, J. Neurobiol., 25:1386-1403, 1994; Klein et al, Cell, 66:395-403, 1991). To explore whether 7,8-dihydroxyflavone triggers TrkB receptor dimerization, HEK293 cells were cotransfected with GST-TrkB and HA-TrkB or HA-TrkA. The cells were then treated with BDNF or small flavone compounds (0.5 μM) for 30 minutes. The cells were harvested, washed once in PBS, and lysed in 1 ml lysis buffer (50 mM Tris, ph 7.4, 150 mM NaCl, 1 mM EDTA, 0.5% Triton X-100, 1.5 mM Na3VO4, 50 mM NaF, 10 mM sodium pyrophosphate, 10 mM sodium β-glycerophosphate, 1 mM phenylmethylsulfonyl fluoride (PMSF), 5 mg/ml aprotinin, 1 mg/ml leupeptin, 1 mg/ml pepstatin A) and centrifuged for 10 minutes at 14,000×g at 4° C. The supernatant was transferred to a fresh tube and transfected TrkB receptor was separated from the supernatant with glutathione beads, and the coprecipitated proteins were resolved on SDS-PAGE.
Target sequence in this assay (Q63604 32-821): as above
Target sequence in this assay (Q63604 32-821): as above

immobility = assay: Forced swim test, 5 days intraperitoneal; assay type: in vivo, mice; conditions: intraperitoneally for 5 days; imipramine 20 mg/kg, amitryptyline 15 mg/kg, 7,8-dihydroxyflavone 5 mg/kg; FIG. 25
Method: Adult male mice (2-3 months old, n=8) were randomly submitted, without a pre-swim, to a forced swim test of 6 minutes with immobility recorded in the last 4 minutes. Mice were injected intraperitoneally for 5 days with saline, imipramine (20 mg/kg), amitryptyline (15 mg/kg), or 7,8-dihydroxyflavone (5 mg/kg). The mice were allowed to adapt to the test room for 2 days, and the mice were placed in a clear glass cylinder with a diameter of 16 cm, half-filled with clear water at 24° C. […] Data are presented as mean±SEM; *p<0.05 against vehicle, **P<0.01 against vehicle and ***P<0.0001 against vehicle, student t-test.

## CC(C)(C)n1nc(Cc2cccc3ccccc23)c2c(N)ncnc21 [1NMPP1]
TrkB F616A
  blocking of BDNF-provoked TrkB phosphorylation: selectively blocked
TrkB F616A; 0.5 μM 7,8-dihydroxyflavone
  blocking of 7,8-dihydroxyflavone-provoked TrkB phosphorylation: selectively blocked
Akt and Erk1/2
  blocking of BDNF-triggered Akt and Erk1/2 activation: blocked
  effect on Akt activation by 7,8-dihydroxyflavone: partially decreased Akt activation
  effect on Erk1/2 activation by 7,8-dihydroxyflavone: failed to inhibit Erk1/2 activation
KA-provoked apoptosis; 1NMPP1 in drinking water
  effect of pretreatment on KA-provoked apoptosis: elevated KA-provoked apoptosis
KA-provoked apoptosis; FIG. 24
  apoptosis in TrkB F616A mice, treatment alone without KA: no effect on apoptosis
Immobility time
  immobility time, 1NMPP1 treated versus saline control groups: No significant difference

## Br.O=c1cc(-c2ccc(F)cc2)[nH]c2c(O)c(O)ccc12 [2-(4-fluorophenyl)-7,8-dihydroxyquinolin-4(1H)-one.HBr]
TrkB [1]
  TrkB activation: did not provoke the same level of TrkB activation

## Br.O=c1cc(-c2cncnc2)oc2c(O)c(O)ccc12 [7,8-dihydroxy-2-(pyrimidin-5-yl)-4H-chromen-4-one.HBr]
TrkB [1]
  TrkB activation: robustly provoked TrkB activation

## Br.O=c1cc(-c2ccccc2)[nH]c2c(O)c(O)ccc12 [7,8-dihydroxy-2-phenylquinolin-4(1H)-one, 7,8-dihydroxy-2-phenylquinolin-4(1H)-one.HBr]
TrkB [1]
  TrkB activation: did not provoke the same level of TrkB activation

## Oc1cc(O)c2c(c1)O[C@H](c1ccc(O)c(O)c1)[C@@H](O)C2 [Cianidanol]
T48 cells
  EC50: 100 nM
  suppression of apoptosis in T48 cell line: strongly suppressed apoptosis
Hippocampal neurons
  protection of hippocampal neurons from glutamate-induced apoptosis: comparable anti-apoptosis activity as BDNF
Erk
  Erk activation (Western): activated

## COc1ccc(-c2cc(=O)c3c(O)cc(O)cc3o2)cc1O [Diosmetin, reference compound]
T48 cells
  EC50: 500 nM
  suppression of apoptosis in T48 cell line: strongly suppressed apoptosis
Hippocampal neurons
  protection of hippocampal neurons from glutamate-induced apoptosis: only slightly protected neurons
Akt
  Akt activation (Western): activated
Erk
  Erk activation (Western): activated
Caspase-3 activation
  caspase-3 activation in both wild-type and TrkB-/- neurons: non-selectively suppressed caspase-3 activation in both neurons

## Oc1ccc([C@H]2Oc3cc(O)cc(O)c3C[C@H]2O)cc1 [Epiafzelechin]
T48 cells
  suppression of apoptosis in T48 cell line: failed to suppress apoptosis
Hippocampal neurons
  protection of hippocampal neurons from glutamate-induced apoptosis: only slightly protected neurons

## Oc1ccc2c(c1)O[C@H](c1ccc(O)c(O)c1)[C@@H](O)C2 [Fisetinidol]
T48 cells
  suppression of apoptosis in T48 cell line: failed to suppress apoptosis
Hippocampal neurons
  protection of hippocampal neurons from glutamate-induced apoptosis: no effect

## CC1=CC(=O)c2ccccc2C1=O [Menadione]
T48 cells
  suppression of apoptosis in T48 cell line: strongly suppressed apoptosis
Hippocampal neurons
  protection of hippocampal neurons from glutamate-induced apoptosis: comparable anti-apoptosis activity as BDNF

## O=C1C[C@@H](c2ccccc2)Oc2cc(O)cc(O)c21 [Pinocembrin, reference compound]
T48 cells
  EC50: 100 nM
  suppression of apoptosis in T48 cell line: strongly suppressed apoptosis
Hippocampal neurons
  protection of hippocampal neurons from glutamate-induced apoptosis: comparable anti-apoptosis activity as BDNF
Erk
  Erk activation (Western): activated
Caspase-3 activation
  caspase-3 activation in both wild-type and TrkB-/- neurons: non-selectively suppressed caspase-3 activation in both neurons
TrkB [2]; GST-TrkB and HA-TrkB, 0.5 μM, 30 minutes, FIG. 14
  TrkB dimerization: failed

## O=c1c(O)c(-c2ccc(O)c(O)c2)oc2cc(O)cc(O)c12 [Quercetin, reference compound]
Erk
  Erk activation (Western): activated

## CN(C)CCC=C1c2ccccc2CCc2ccccc21 [amitryptyline]
immobility
  swimming immobility: decreased

## CN(C)CCCN1c2ccccc2CCc2ccccc21 [imipramine]
immobility
  swimming immobility: decreased

B1: BDNF: brain-derived neurotrophic factor, positive control, from Roche (protein, UniProt P23560 19-247, looked up)
Neurotrophic factor BDNF …: APMKEANIRGQGGLAYPGVRTHGTLESVNGPKAGSRGLTSLADTFEHVIEELLDEDQKVRPNEENNKDADLYTSRVMLSSQVPLEPPLLFLLEEYKNYLDAANMSMRVRRHSDPARRGELSVCDSISEWVTAADKKTAVDMSGGTVTVLEKVPVSKGQLKQYFYETKCNPMGYTKEGCRGIDKRHWNSQCRTTQSYVRALTMDSKKRIGWRFIRIDTSCVCTLTIKRGR
T48 cells
  suppression of apoptosis in T48 cell line: decreased apoptosis
TrkB [2]; GST-TrkB and HA-TrkA cotransfected
  dimerization of TrkB with TrkA receptor: failed to dimerize with TrkA receptor
